Our source for the solubility values is patent US20040122106A1, “Tablets quickly disintegrating in oral cavity” (priority 2001, published 2004).

Converted amounts (≈) assume the structure as drawn. Structures can show the parent of a compound that is named as a salt.

One data set in a line: physchem. As to conditions: 20 °C, water, thermodynamic from solid.
Protocol: The water solubility of the pharmacologically active ingredient was determined by the method described in the Japanese Pharmacopoeia, the General Rule 13, Paragraph 23.
Turning to `CN(C)C(=O)C(CCN1CCC(O)(c2ccc(Cl)cc2)CC1)(c1ccccc1)c1ccccc1` [loperamide hydrochloride], the solubility at 30 min is about 1 mg/mL.

The data set is the same for the next values; noted with them: water, 20 °C, thermodynamic from solid.
On to `Nc1c(Br)cc(Br)cc1CN[C@H]1CC[C@H](O)CC1` [ambroxol hydrochloride], for which the solubility at 30 min is about 20 mg/mL.

Regarding `O=c1[nH]c2ccccc2n1CCCN1CCC(n2c(=O)[nH]c3cc(Cl)ccc32)CC1` [domperidone], the solubility at 30 min is about 0.002 mg/mL (≈ 4.7 µM).

Consider `NC(N)=Nc1nc(CSCCC(N)=NS(N)(=O)=O)cs1` [famotidine], for which the solubility at 30 min is about 0.7 mg/mL (≈ 2070 µM).

`COc1ccc(OC)c(C(O)CNC(=O)CN)c1` (stereo not drawn) [midodrine hydrochloride] yielded a solubility at 30 min of about 100 mg/mL. The same measure, in the same setting: under `C[C@H](CS)C(=O)N1CCC[C@H]1C(=O)O` [captopril] stands about 60 mg/mL (≈ 276000 µM).
